According to patent US20250325525A1, “GLP1 TABLET COMPOSITIONS” (Eli Lilly and Company, priority 2022, published 2025):

Assay: Twenty-four hour aqueous solubility at 25° C.
Assay type: physicochemical
Settings: thermodynamic from solid, crystalline
Description: Twenty-four Hour Aqueous Solubility of Crystalline GLP1RA-Ca at 25° C.
Twenty-Four Hour Aqueous Solubility of Preparation 3 SDD at 25° C.

Work on `Cc1cc(-n2nc3c(c2-n2ccn(-c4ccc5c(cnn5C)c4F)c2=O)[C@H](C)N(C(=O)c2cc4cc([C@H]5CCOC(C)(C)C5)ccc4n2[C@@]2(c4noc(=O)[nH]4)C[C@@H]2C)CC3)cc(C)c1F` [GLP1RA-Ca, 3-[(1S,2S)-1-[5-[(4S)-2,2-dimethyloxan-4-yl]-2-[(4S)-2-(4-fluoro-3,5-dimethylphenyl)-3-[3-(4-fluoro-1-methylindazol-5-yl)-2-oxoimidazol-1-yl]-4-methyl-6,7-dihydro-4H-pyrazolo[4,3-c]pyridine-5-carbonyl]indol-1-yl]-2-methylcyclopropyl]-4H-1,2,4-oxadiazol-5-one, 0.5 Ca hydrate] yielded a solubility at 24 h (aqueous buffer, pH 4.5 acetate buffer (USP), media pH 4.5) of less than 1 µg/mL, a solubility at 24 h (aqueous buffer, pH 6.0 phosphate buffer (USP), media pH 5.99) of less than 1 µg/mL and a solubility at 24 h (aqueous buffer, pH 7.5 phosphate buffer (USP), media pH 7.44) of 3 µg/mL. For the same molecule, the solubility at 24 h (fassif, Fasted state simulated intestinal fluid, media pH 6.49) was 2 µg/mL, the solubility at 24 h (fessif, Fed state simulated intestinal fluid, media pH 4.93) was 13 µg/mL and the solubility at 24 h (simulated gastric fluid, 0.01N HCl, media pH 1.98) was less than 1 µg/mL. For the same molecule, the solubility at 24 h (simulated gastric fluid, 0.1N HCl, media pH 1.01) was less than 1 µg/mL, the solubility at 24 h (Simulated gastric fluid, media pH 1.97) was 3 µg/mL and the solubility at 24 h (Water, media pH not measured) was 28 µg/mL.
